Patent publication US20160009693A1, “HERBICIDAL COMPOUNDS” (SYNGENTA LIMITED, priority 2013, published 2016)

Experiments:
Format in all cases: in vivo
Conditions in all cases: evaluated after 13 days
[1] = tested on: Alopecurus myosuroides (ALOMY); test: Herbicidal glasshouse test, pre-emergence, ALOMY
Setaria faberi (SETFA) [2] = test: Herbicidal glasshouse test, pre-emergence, SETFA
[3] = tested on: Echinochloa crus-galli (ECHCG); test: Herbicidal glasshouse test, pre-emergence, ECHCG
Procedure, shortened: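 In this pre-emergence glasshouse test, ECHCG seeds sown in pots of standard soil were sprayed one day after sowing with the test material in acetone/water (50:50) containing 0.5% Tween 20. Plants were kept at 24/16° C., 14 hours light, 65% humidity, and watered twice daily. Percentage damage was rated after 13 days on a 1–5 scale.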

Solanum nigrum (SOLNI) [4] = test: Herbicidal glasshouse test, pre-emergence, SOLNI
Procedure, shortened: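 This pre-emergence glasshouse herbicide test used Solanum nigrum sown in standard soil. One day after sowing, pots were sprayed with the compound in acetone/water (50:50) with 0.5% Tween 20. They were then grown at 24/16° C., with 14 hours light and 65% humidity, and watered twice daily. Percentage damage was scored after 13 days on a five point scale, where 5=80-100% and 1=0-19%.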

[5] = tested on: Amaranthus retoflexus (AMARE); test: Herbicidal glasshouse test, pre-emergence, AMARE
Procedure, shortened: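 This pre-emergence glasshouse herbicide test used Amaranthus retoflexus sown in standard soil. After one day of cultivation, an aqueous spray made from the technical ingredient in 50:50 acetone/water with 0.5% Tween 20 was applied. Pots stayed at 24/16° C., 14 hours light, 65% humidity, with twice-daily watering. Damage was rated on a five point scale (1=0-19% up to 5=80-100%).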

[6] = tested on: Ipomoea hederacea (IPOHE); test: Herbicidal glasshouse test, pre-emergence, IPOHE
[7] = tested on: Alopecurus myosuroides (ALOMY); test: Herbicidal glasshouse test, post-emergence, ALOMY
Setaria faberi (SETFA) [8] = test: Herbicidal glasshouse test, post-emergence, SETFA
Procedure, shortened: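 This post-emergence glasshouse herbicide test used potted Setaria faberi. Plants were cultivated for 8 days under controlled conditions (24/16° C. day/night, 14 hours light, 65% humidity) and then treated with an aqueous spray made from an acetone/water (50:50) solution containing 0.5% Tween 20. After 13 days of further growth with twice-daily watering, damage was rated on a five point scale (5=80-100%; 1=0-19%).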

[9] = tested on: Echinochloa crus-galli (ECHCG); test: Herbicidal glasshouse test, post-emergence, ECHCG
Procedure, shortened: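 In this post-emergence glasshouse test, barnyard grass (ECHCG) was cultivated for 8 days under controlled conditions (24/16° C. day/night, 14 hours light, 65% humidity). It was then sprayed with an aqueous solution of the technical compound in acetone / water (50:50) with 0.5% Tween 20. Plants were kept under the same conditions and watered twice daily. After 13 days, percentage damage was rated on a five point scale (5=80-100%; 1=0-19%).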

Solanum nigrum (SOLNI) [10] = test: Herbicidal glasshouse test, post-emergence, SOLNI
[11] = tested on: Amaranthus retoflexus (AMARE); test: Herbicidal glasshouse test, post-emergence, AMARE
Procedure, shortened: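 This post-emergence glasshouse test used AMARE plants raised in standard soil for 8 days under controlled conditions (24/16° C. day/night, 14 hours light, 65% humidity). Foliage was sprayed with formulated compound in acetone/water (50:50) containing 0.5% Tween 20. Plants were then watered twice daily, and after 13 days percentage damage was rated on a five point scale.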

[12] = tested on: Ipomoea hederacea (IPOHE); test: Herbicidal glasshouse test, post-emergence, IPOHE

Structure (SMILES)	PRE Application ALOMY, percentage damage (five point scale) ([1]; applied at 1000 g/h)	PRE Application SETFA, percentage damage (five point scale) (Setaria faberi (SETFA) [2]; applied at 1000 g/h)	PRE Application ECHCG, percentage damage (five point scale) ([3]; applied at 1000 g/h)	PRE Application SOLNI, percentage damage (five point scale) (Solanum nigrum (SOLNI) [4]; applied at 1000 g/h)	PRE Application AMARE, percentage damage (five point scale) ([5]; applied at 1000 g/h)	PRE Application IPOHE, percentage damage (five point scale) ([6]; applied at 1000 g/h)	POST Application ALOMY, percentage damage (five point scale) ([7]; applied at 1000 g/h)	POST Application SETFA, percentage damage (five point scale) (Setaria faberi (SETFA) [8]; applied at 1000 g/h)	POST Application ECHCG, percentage damage (five point scale) ([9]; applied at 1000 g/h)	POST Application SOLNI, percentage damage (five point scale) (Solanum nigrum (SOLNI) [10]; applied at 1000 g/h)	POST Application AMARE, percentage damage (five point scale) ([11]; applied at 1000 g/h)	POST Application IPOHE, percentage damage (five point scale) ([12]; applied at 1000 g/h)	also measured
Cn1nnnc1NC(=O)c1nn(C)c(=O)n(-c2ccccc2F)c1=O [Compound 1.020]	5 (5=80-100%)	5 (5=80-100%)	5 (5=80-100%)	5 (5=80-100%)	5 (5=80-100%)	5 (5=80-100%)	5 (5=80-100%)	5 (5=80-100%)	5 (5=80-100%)	5 (5=80-100%)	5 (5=80-100%)	5 (5=80-100%)	
Cn1nnnc1NC(=O)c1nn(C)c(=O)n(-c2ccc(OC(F)(F)F)cc2)c1=O [Compound 1.039]	5 (5=80-100%)	5 (5=80-100%)	5 (5=80-100%)	5 (5=80-100%)	5 (5=80-100%)	5 (5=80-100%)	5 (5=80-100%)	5 (5=80-100%)	5 (5=80-100%)	5 (5=80-100%)	5 (5=80-100%)	5 (5=80-100%)	
CC#CCn1c(=O)c(C(=O)Nc2nnnn2C)nn(C)c1=O [Compound 1.092]	4 (4=60-79%)	5 (5=80-100%)	5 (5=80-100%)	5 (5=80-100%)	5 (5=80-100%)	5 (5=80-100%)	4 (4=60-79%)	5 (5=80-100%)	5 (5=80-100%)	5 (5=80-100%)	5 (5=80-100%)	5 (5=80-100%)	
Cn1nnnc1NC(=O)c1nn(C)c(=O)n(-c2ccc(Cl)c(Cl)c2)c1=O [Compound 1.041]	5 (5=80-100%)	4 (4=60-79%)	5 (5=80-100%)	5 (5=80-100%)	5 (5=80-100%)	5 (5=80-100%)	5 (5=80-100%)	5 (5=80-100%)	5 (5=80-100%)	5 (5=80-100%)	5 (5=80-100%)	5 (5=80-100%)	
Cn1nnnc1NC(=O)c1nn(C)c(=O)n(-c2ccc(F)cc2)c1=O [Compound 1.015]	5 (5=80-100%)	5 (5=80-100%)	5 (5=80-100%)	5 (5=80-100%)	5 (5=80-100%)	5 (5=80-100%)	5 (5=80-100%)	5 (5=80-100%)	5 (5=80-100%)	5 (5=80-100%)	5 (5=80-100%)	5 (5=80-100%)	
Cn1nnnc1NC(=O)c1nn(C)c(=O)n(-c2ccc(Cl)c(C#N)c2)c1=O [Compound 1.047]													PRE Application ALOMY, percentage damage (five point scale) ([1]; applied at 250 g/ha): 1 (1=0-19%); PRE Application SETFA, percentage damage (five point scale) (Setaria faberi (SETFA) [2]; applied at 250 g/ha): 1 (1=0-19%); PRE Application ECHCG, percentage damage (five point scale) ([3]; applied at 250 g/ha): 3 (3=40-59%); PRE Application SOLNI, percentage damage (five point scale) (Solanum nigrum (SOLNI) [4]; applied at 250 g/ha): 5 (5=80-100%); PRE Application AMARE, percentage damage (five point scale) ([5]; applied at 250 g/ha): 5 (5=80-100%); PRE Application IPOHE, percentage damage (five point scale) ([6]; applied at 250 g/ha): 5 (5=80-100%); POST Application ALOMY, percentage damage (five point scale) ([7]; applied at 250 g/ha): 3 (3=40-59%); POST Application SETFA, percentage damage (five point scale) (Setaria faberi (SETFA) [8]; applied at 250 g/ha): 1 (1=0-19%); POST Application ECHCG, percentage damage (five point scale) ([9]; applied at 250 g/ha): 3 (3=40-59%); POST Application SOLNI, percentage damage (five point scale) (Solanum nigrum (SOLNI) [10]; applied at 250 g/ha): 5 (5=80-100%); POST Application AMARE, percentage damage (five point scale) ([11]; applied at 250 g/ha): 5 (5=80-100%); POST Application IPOHE, percentage damage (five point scale) ([12]; applied at 250 g/ha): 4 (4=60-79%)
Cc1cc(C)cc(-n2c(=O)c(C(=O)Nc3nnnn3C)nn(C)c2=O)c1 [Compound 1.038]	5 (5=80-100%)	5 (5=80-100%)	5 (5=80-100%)	5 (5=80-100%)	5 (5=80-100%)	5 (5=80-100%)	5 (5=80-100%)	5 (5=80-100%)	5 (5=80-100%)	5 (5=80-100%)	5 (5=80-100%)	5 (5=80-100%)	
